Data reported in ChEMBL document CHEMBL5634087, “Novel 5-aminopyrazoles endowed with anti-angiogenetic properties: Design, synthesis and biological evaluation” (Eur J Med Chem, 2023).
Active and inactive are the calls of the source. No cut-off for these calls is given here.

Columns and labels:
[1] = Cytotoxicity against human GM06114 cells assessed as growth rate at 10 uM incubated for 48 hrs by MTT assay relative to control; type: toxicity, cell-based; conditions: gm06114, 48 h
[2] = system: MCF7; test: Antiproliferative activity against human MCF7 cells assessed as growth rate at 10 uM incubated for 48 hrs by MTT assay relative to control; type: functional; conditions: read-out: Activity
[3] = system: SK-BR-3; test: Antiproliferative activity against human SK-BR-3 cells assessed as growth rate at 10 uM incubated for 48 hrs by MTT assay relative to control; type: functional; conditions: read-out: Activity
[4] = system: A549; test: Antiproliferative activity against human A549 cells assessed as growth rate at 10 uM incubated for 48 hrs by MTT assay relative to control; type: functional; conditions: read-out: Activity
[5] = system: SK-OV-3; test: Antiproliferative activity against human SK-OV-3 cells assessed as growth rate at 10 uM incubated for 48 hrs by MTT assay relative to control; type: functional; conditions: read-out: Activity
[6] = system: MDA-MB-231; test: Antiproliferative activity against human MDA-MB-231 cells assessed as growth rate at 10 uM incubated for 48 hrs by MTT assay relative to control; type: functional; conditions: read-out: Activity
[7] = system: HUVEC; test: Antiangiogenic activity in confluent VEGF stimulated HUVEC cells assessed as relative cell migration rate at 20 uM incubated for 48 hrs by Hoechst 33342 staining based wound healing assay relative to control; type: functional, Homo sapiens
[8] = system: HFF; test: Antiangiogenic activity in confluent HFF cells assessed as inhibition of cell migration at 20 uM incubated for 24 to 48 hrs by Hoechst 33342 staining based wound healing assay; type: functional; conditions: Homo sapiens, time 24-48 hrs
[9] = biological target: Mitogen-activated protein kinase; ERK1/ERK2 (Homo sapiens) (UniProt P27361+P28482); test: Inhibition of ERK1/2 phosphorylation in serum starved bFGF stimulated HFF cells assessed as residual phosphorylated ERK1/2 level at 20 uM preincubated for 10 mins followed by bFGF addition and measured after 20 mins by Western blotting analysis relative to control; type: cell-based; conditions: time 30.0 min
Mitogen-activated protein kinase; ERK1/ERK2 (Homo sapiens), sequence (P27361 whole entry, looked up): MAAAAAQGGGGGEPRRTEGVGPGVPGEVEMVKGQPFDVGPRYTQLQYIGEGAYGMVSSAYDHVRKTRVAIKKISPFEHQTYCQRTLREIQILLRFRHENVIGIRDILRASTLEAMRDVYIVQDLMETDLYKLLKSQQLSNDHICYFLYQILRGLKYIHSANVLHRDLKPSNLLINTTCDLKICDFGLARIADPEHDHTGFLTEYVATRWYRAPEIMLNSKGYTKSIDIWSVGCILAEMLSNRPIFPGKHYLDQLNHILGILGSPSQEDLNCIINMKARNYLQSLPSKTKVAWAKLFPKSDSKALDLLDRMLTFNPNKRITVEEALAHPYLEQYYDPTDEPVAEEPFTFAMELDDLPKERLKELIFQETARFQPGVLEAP
Mitogen-activated protein kinase; ERK1/ERK2 (Homo sapiens), sequence (P28482 whole entry, looked up): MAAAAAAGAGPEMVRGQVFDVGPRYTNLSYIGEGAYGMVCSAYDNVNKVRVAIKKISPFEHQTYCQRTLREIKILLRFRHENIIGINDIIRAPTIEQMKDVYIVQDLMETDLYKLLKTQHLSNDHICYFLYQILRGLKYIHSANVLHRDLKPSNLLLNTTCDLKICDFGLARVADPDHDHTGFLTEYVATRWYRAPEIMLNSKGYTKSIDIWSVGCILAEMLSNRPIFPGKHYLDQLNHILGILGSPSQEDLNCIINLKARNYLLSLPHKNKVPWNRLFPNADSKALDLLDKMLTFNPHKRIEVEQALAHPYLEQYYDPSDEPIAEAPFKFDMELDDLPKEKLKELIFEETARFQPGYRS

[10] = system: SK-MEL-28; test: Antiproliferative activity against human SK-MEL-28 cells assessed as growth rate at 10 uM incubated for 48 hrs by MTT assay relative to control; type: functional; conditions: read-out: Activity
[11] = system: HUVEC; test: Antiangiogenic activity in confluent VEGF stimulated HUVEC cells assessed as relative cell migration rate at 20 uM incubated for 24 hrs by Hoechst 33342 staining based wound healing assay relative to control; type: functional, Homo sapiens
[12] = system: HepG2; test: Antiproliferative activity against human HepG2 cells assessed as growth rate at 10 uM incubated for 48 hrs by MTT assay relative to control; type: functional; conditions: read-out: Activity
[13] = system: HeLa; test: Antiproliferative activity against human HeLa cells assessed as growth rate at 10 uM incubated for 48 hrs by MTT assay relative to control; type: functional; conditions: read-out: Activity
[14] = biological target: RAC-alpha serine/threonine-protein kinase (Homo sapiens) (UniProt P31749); test: Inhibition of AKT phosphorylation in serum starved VEGF stimulated HUVEC cells at 20 uM preincubated for 10 mins followed by VEGF addition and measured after 20 mins by Western blotting analysis; type: cell-based; conditions: time 30.0 min
RAC-alpha serine/threonine-protein kinase (Homo sapiens), sequence (P31749 whole entry): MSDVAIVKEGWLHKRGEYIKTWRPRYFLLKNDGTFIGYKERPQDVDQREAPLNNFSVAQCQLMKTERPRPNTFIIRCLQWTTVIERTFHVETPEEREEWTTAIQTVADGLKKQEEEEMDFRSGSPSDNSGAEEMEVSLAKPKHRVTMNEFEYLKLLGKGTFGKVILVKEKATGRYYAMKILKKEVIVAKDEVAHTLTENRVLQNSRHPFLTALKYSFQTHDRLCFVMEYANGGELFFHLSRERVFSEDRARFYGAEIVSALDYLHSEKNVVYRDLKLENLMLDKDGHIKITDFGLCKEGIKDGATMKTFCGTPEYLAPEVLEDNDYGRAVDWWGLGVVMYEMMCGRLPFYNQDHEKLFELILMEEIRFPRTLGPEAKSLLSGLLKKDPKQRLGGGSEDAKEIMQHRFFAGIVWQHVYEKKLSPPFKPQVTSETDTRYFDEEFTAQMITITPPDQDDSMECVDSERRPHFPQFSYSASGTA

[15] = system: HUVEC; test: Antiangiogenic activity in confluent VEGF stimulated HUVEC cells assessed as inhibition of cell migration at 20 uM incubated for 24 to 48 hrs by Hoechst 33342 staining based wound healing assay; type: functional; conditions: Homo sapiens, time 24-48 hrs
[16] = biological target: RAC-alpha serine/threonine-protein kinase (Homo sapiens) (UniProt P31749); test: Inhibition of AKT phosphorylation in serum starved bFGF stimulated HFF cells at 20 uM preincubated for 10 mins followed by bFGF addition and measured after 20 mins by Western blotting analysis; type: cell-based; conditions: time 30.0 min
[17] = system: HUVEC; test: Antiangiogenic activity in confluent VEGF stimulated HUVEC cells assessed as inhibition of cell migration at 20 uM incubated for 48 hrs by Hoechst 33342 staining based wound healing assay; type: functional; conditions: Homo sapiens
[18] = system: HFF; test: Antiangiogenic activity in confluent HFF cells assessed as relative migration rate at 1 uM incubated for 48 hrs by Hoechst 33342 staining based wound healing assay relative to control; type: functional, Homo sapiens
[19] = biological target: RAC-alpha serine/threonine-protein kinase (Homo sapiens) (UniProt P31749); test: Inhibition of AKT phosphorylation in serum starved VEGF stimulated HUVEC cells at 20 uM preincubated for 10 mins followed by VEGF addition and measured after 20 mins by Western blotting analysis relative to control; type: cell-based; conditions: time 30.0 min
[20] = system: HFF; test: Antiangiogenic activity in confluent HFF cells assessed as relative migration rate at 1 uM incubated for 24 hrs by Hoechst 33342 staining based wound healing assay relative to control; type: functional, Homo sapiens

Row | Activity [9] [%] | inhibition [14] | inhibition [16] | inhibition [19] [%] | Structure (SMILES) | Activity [1] [%] | growth at 10 µM [2] [%] | growth at 10 µM [3] [%] | growth at 10 µM [4] [%] | growth at 10 µM [5] [%] | growth at 10 µM [6] [%] | Activity [7] [%] | Activity [8] | growth at 10 µM [10] [%] | Activity [11] [%] | growth at 10 µM [12] [%] | growth at 10 µM [13] [%] | Activity [15] | Activity [17] | Activity [18] [%] | Activity [20] [%]
1 | > 70 |  |  |  | CCOC(=O)c1c(Nc2ccc(Cl)cc2)nn(CC(OC(=O)Nc2cccc(C(F)(F)F)c2)c2ccccc2)c1N (stereo not given) | 131.1 | 128 | 124 | 89.2 | 122 | 121 | >50 | inactive | 112 | >50 | 120 | 65.9 |  |  |  | 
2 | > 70 | inactive | inactive |  | CCCCC(O)Cn1nc(Nc2ccc(Cl)cc2)c(C(=O)OCC)c1N (stereo not given) | 93.96 | 145 | 114 | 130 | 132 | 137 |  | Active | 115 |  | 108 | 104 | inactive |  |  | 
3 | > 70 |  | Active |  | CCCCC(O)Cn1nc(Nc2ccccc2Cl)c(C(=O)OCC)c1N (stereo not given) | 92.72 | 140 | 103 | 138 | 125 | 126 |  | Active | 109 | 47.74 | 102 | 104 |  | inactive |  | 
4 |  |  |  | 24.1 | Cc1nc(Nc2ncc(C(=O)Nc3c(C)cccc3Cl)s2)cc(N2CCN(CCO)CC2)n1 [DASATINIB ANHYDROUS] |  |  |  |  |  |  |  |  |  |  |  |  | inactive |  | 27.32 | 27.31
